In paper PMC10391610, “Survivin prevents the polycomb repressor complex 2 from methylating histone 3 lysine 27” (iScience, 2023):

How the values were obtained:
survivin = target: T1, survivin (Homo sapiens, UniProt O15392); test: PEPperCHIP peptide microarray, survivin interaction; format: binding; settings: 1 μg/mL survivin; for Average FI (%): anti-His tag DyLight680 read-out, percentage of maximum fluorescence intensity units (64193) per peptide; for Average FI (%) / Integrated FI: 15-mer microarray peptides covering the residues; for Integrated FI: in units of the maximum FI per peptide; for survivin interaction / fluorescence on microarray (in words): peptide microarray
T1 construct: transferred to the survivin1-142 construct used in the present study; His8 tag (pHIS8 vector, thrombin-cleavable); made in house; host or cells: E. coli BL21(DE3) star
T1 sequence (O15392 whole entry): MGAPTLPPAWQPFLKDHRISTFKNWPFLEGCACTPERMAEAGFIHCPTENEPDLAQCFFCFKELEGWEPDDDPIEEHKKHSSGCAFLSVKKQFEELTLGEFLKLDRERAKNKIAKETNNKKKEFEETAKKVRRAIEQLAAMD
From the text: We were looking for potential direct interactions between survivin and short peptide sequences originating from PRC2 subunits and other proteins involved in histone modifications based on the in vivo results. Therefore, we created a peptide microarray of overlapping peptides obtained from EZH2, EED, SUZ12, and JARID2 to investigate how survivin interacts with the activity of the PRC2 complex. These subunits form the core of PRC2, and the interaction of survivin with the PRC2 molecular scaffold indicates a potentially disruptive role for survivin in PRC2 function. The fluorescence signal generated by labeled survivin is compared in Figure 2 as a function of position along the polypeptide chain of PRC2 subunits. Figure S1 depicts the raw fluorescence images. Moreover, the microarray fluorescence intensities projected on the three-dimensional structure of the PRC2 core complex are shown in Figure 3. The whole dataset is deposited at the Zenodo data base.
The location of survivin on the peptide microarray was clearly correlated with the amino acid content of the peptide at 1 μg/mL survivin concentration. When evaluating how accurate the predictions were, one should keep in mind that the primary and higher-order structures of the peptide were not at all considered in this analysis. Mislabeling peptides is possible for multiple reasons. The smallest fluorescence signal was chosen as the limit of detection and photon-counting errors may cause weak interactions to be undetected at low fluorescence intensities. Moreover, if the fluorescence intensity of experimental duplicates varied by more than 40%, a peptide was classified as non-interacting even if the lack of reproducibility is ambiguous evidence for the lack of interaction. […] Reducing the number of hidden layer perceptrons from 100 (the default value) to 9 had no effect on the classifier’s performance. Even a 15 amino acid peptide segment composition gives a high degree of uniqueness and highly scalable intensity for survivin-peptide interaction. Survivin has a non-globular structure with no deep binding pockets.
A peptide microarray was designed using the protein sequences from: Cdk1 (P06493), KAT2A/GCN5 (Q92830), SPI1/PU1 (P17947), SUZ12 (Q15022), EED (O75530), JADE3 (Q92613), DIABLO/SMAC (Q9NR28), BOREALIN (Q53HL2), INCENP (Q9NQS7), SGOL1 (Q5FBB7), SGOL2 (Q562F6), EZH2 (Q15910), JARID2 (Q92833), Histone H3 (P68431), AURORAKB (Q96GD4), JADE1 (Q6IE81), JTB (O76095), EVI5 (O60447), RAN (P62826), USP9X (Q93008), C-IAP1 (Q13490), STAT3 (P40763), BRUCE/APOLLON (Q9NR09), XPO1 (O14980), CDX2 (Q99626), Msx2 (P35548), RBM15 (Q96T37), PHF21A (Q96BD5), PHF8 (Q9UPP1), DIDO (Q9BTC0), JADE2 (Q9NQC1) and HASPIN (Q8TF76). The Uniprot ID is shown in parenthesis. The protein sequences were divided into 15 amino acid long peptides with a 10 amino acid overlap. To investigate background interactions with the protein-derived peptides that could interfere with the main assays, one of the PEPperCHIP Peptide Microarrays (PEPperPRINT Gmbh) was pre-staining with the secondary 6x His Tag Antibody DyLight680 antibody at a dilution of 1:1000 and with the monoclonal anti-HA (12CA5)-DyLight800 control antibody at a dilution of 1:1000. Subsequent incubation of other peptide microarray copies with survivin at a concentration of 1 μg/ml in incubation buffer was followed by staining with the secondary 6x His Tag Antibody DyLight680 antibody (Rockland Immunochemicals, Pottstown, PA, USA) and the monoclonal anti-HA (12CA5)-DyLight800 control antibody (Rockland Immunochemicals, Pottstown, PA, USA). The read-out was performed by scanning intensities of 7/7 (red/green). As an internal quality control, HA and His tag control peptides were stained simultaneously to confirm assay quality and to facilitate grid alignment for data quantification. The LI-COR Odyssey Imaging System was used for read-out, and the PepSlide Analyzer was used for quantification of spot intensities and peptide annotation. […]

[U-15N]-survivin = target: T2, [U-15N]-survivin (Homo sapiens, UniProt O15392); test: NMR titration of [U-15N]-survivin with PRC2-derived peptides; format: binding; settings: for NMR cpc (critical peptide concentration): 300 μM [U-15N]-survivin, 50 mM Tris, 150 mM NaCl, 1 mM DTT, pH 7.5, 298 K, Bayesian logistic fit (Table 3); for <L>: logistic function parameter L; for <L> / <b> / <k>: posterior mean (Table S10); for <b>: logistic function parameter b; for <k>: logistic function parameter k
T2 construct: transferred to the survivin1-142 construct used in the present study; His8 tag (pHIS8 vector, thrombin-cleavable); made in house; host or cells: E. coli BL21(DE3) star, M9 medium with 15NH4Cl
T2 sequence (O15392 whole entry): as above
Method: Uniformly [U] labeled [U-^15N] survivin was produced in H2O-based M9 medium[69] containing ^15NH4Cl as the sole nitrogen and in case of or [U-^15N,^13C] survivin D-(^13C)-glucose was additionally added as the sole carbon source, respectively (Sigma-Aldrich). Expression was induced with 0.5 mM IPTG and continued for 20–22 h at 15°C. Cell harvesting and subsequent purification followed the same protocol as for unlabeled survivin.
NMR measurements were performed on Bruker (Fällanden, Switzerland) AvanceIII 800 MHz spectrometers running Topspin 3.5 or 3.6, respectively, equipped with cryogenically cooled triple resonance probes. All NMR experiments were performed in NMR buffer (50 mM Tris, 150 mM NaCl, 1 mM DTT, pH 7.5) and at 298 K. The sequence-specific backbone assignment of survivin1-117 was taken from previously published assignment,[50] and transferred to the survivin1-142 construct used in the present study. Existing resonance assignments were confirmed, and additional resonances were assigned in a sequence-specific manner by the following experiments: [^1H,^15N]-TROSY HSQC,[70] BEST-TROSY-type HNCA and HNCO experiments.[71]
The peptides were synthetized and purified to 95% by Biomatik. The peptides were titrated into ^15N labelled survivin (0.3 mM). Standard 2D [^15N,^1H]-SOFAST-HMQC[72] experiments were recorded with inter-scan delays of 200 ms and 1025 x 256 complex points for the ^1H and ^15N dimensions, respectively, for the titrations of the different peptides with [U-^15N] survivin.
For the global analysis, the NMR signal strength was quantified by summing the 200 highest values in each 2D NMR spectrum to ensure that all peaks corresponding to the different amino acid residues in survivin are potentially covered. The titration curve was modelled using a Bayesian machine learning approach using the python library pymc3.[66] The logistic function was chosen due to computational convenience. The most important parameter of this function was coined “critical peptide concentration (cpc)” and its logarithm was modelled using a uniform a priori distribution between −10 and 1. p(log10cpc|lower=−10,upper=1)=1/upper−lower
The modelling errors related to the choice of function affect the analysis of different peptides similarly. Therefore, the relative magnitude of cpc in comparison is more reliable than the absolute magnitude of cpc itself. The concentration values were converted to dimensionless quantities by dividing with 1 mM and the NMR signal intensity was normalized for the concentration range studied.
A deterministic sigmoid (logistic) function was used to model signal decay as a function of peptide concentration. Additional a priori assumptions of the function parameters were the following: p(k|lower=−10,upper=10)=1/upper−lower p(L|lower=−3,upper=3)=1/upper−lower p(b|lower=−10,upper=10)=1/upper−lower
1000 posterior samples were collected in four parallel chains using the No-U-Turn sampling algorithm (NUTS) after 2000 tuning steps/chain.[83] The default sampling parameters were used except for “target accept” parameter, which was increased to 0.95. For the final analysis the 1000 samples from the four chains were merged to yield 4000 samples.

| Sequence | Average FI (%) (survivin) | Integrated FI (survivin) | survivin interaction / fluorescence on microarray (in words) (survivin) | NMR cpc (critical peptide concentration) ([U-15N]-survivin) [µM] | <L> ([U-15N]-survivin) | <b> ([U-15N]-survivin) | <k> ([U-15N]-survivin) |
| --- | --- | --- | --- | --- | --- | --- | --- |
| PLRPQEMEVDSEDEKDPEWLREKTI [SUZ12_573-597, PRC2-derived peptide, SUZ12 residues 573–597, synthesized by Biomatik] | 20 | 0.6 | high survivin-associated fluorescence intensity | 0.0066 | -0.59 | 0.87 | 0.99 |
| PNSMVYFGSSQDEEEVEEEDDETED [JARID2_170-194, PRC2-derived peptide, JARID2 residues 170–194, synthesized by Biomatik] | 100 | 3.00 | high survivin-associated fluorescence intensity | 0.0085 | -0.53 | 0.79 | 1.25 |
| SQGEIRLLQSYVDADADENFYTCAW [EED128-152, PRC2-derived peptide, EED residues 128–152, synthesized by Biomatik] | 10 | 0.31 | high survivin-associated fluorescence intensity | 0.0076 | -0.00 | 0.51 | -0.01 |
